From patent US6342514B1, “Compositions and methods for treating bone deficit conditions” (ZymoGenetics, Inc., priority 1996, dated 2002)

What was measured:
[1] = tested on: mouse BMP2 promoter; assay: High throughput screening: BMP-2 promoter luciferase reporter assay in 2T3-BMP-2-LUC cells; type: cell-based; conditions: at about 3 μM
From the text: A rapid throughput screening test for compounds capable of stimulating expression of a reporter gene linked to a BMP promoter (a surrogate for the production of bone morphogenetic factors that are endogenously produced) is described in U.S. application Ser. No. 08/458,434, filed Jun. 2, 1995, the contents of which are incorporated herein by reference. This assay is also described as a portion of a study of immortalized murine osteoblasts (derived from a mouse expressing a transgene composed of a BMP2 promoter driving expression of T-antigen) in Ghosh-Choudhery, N. et al. Endocrinology (1996) 137:331-39. […]
Briefly, the assay utilizes cells transformed permanently or transiently with constructs in which the promoter of a bone morphogenetic protein, specifically BMP2 or BMP4, is coupled to a reporter gene, typically luciferase. These transformed cells are then evaluated for the production of the reporter gene product; compounds that activate the BMP promoter will drive production of the reporter protein, which can be readily assayed. […]
The treated cells were incubated for 24 hours at 37° C. and 5% CO2. […] Luminescence was measured on an automated 96-well luminometer, and was expressed as either picograms of luciferase activity per well or as picograms of luciferase activity per microgram of protein. […]

[2] = tested on: calvarial bone of ICR Swiss white mice; assay: In vivo assay of effects of compounds on murine calvarial bone growth; set-up: species or system mouse; conditions: subcutaneous injection over right calvaria, day 14, compared to vehicle control
Procedure: Male ICR Swiss white mice, aged 4-6 weeks and weighing 13-26 gm, are employed, using 4-5 mice per group. The calvarial bone growth assay is performed as described in PCT application WO 95/24211. Briefly, the test compound or appropriate control vehicle is injected into the subcutaneous tissue over the right calvaria of normal mice. Typically, the control vehicle is the vehicle in which the compound was solubilized, and is PBS containing 5% DMSO or is PBS containing Tween (2 μl/10 ml). The animals are sacrificed on day 14 and bone growth measured by histomorphometry. Bone samples for quantitation are cleaned from adjacent tissues and fixed in 10% buffered formalin for 24-48 hours, decalcified in 14% EDTA for 1-3 weeks, processed through graded alcohols; and embedded in paraffin wax. Three to five μm sections of the calvaria are prepared, and representative sections are selected for histomorphometric assessment of the effects on bone formation and bone resorption. Sections are measured by using a camera lucida attachment to trace directly the microscopic image onto a digitizing plate. Bone changes are measured on sections cut 200 μm apart, over 4 adjacent 1×1 mm fields on both the injected and noninjected sides of the calvaria. New bone is identified by its characteristic woven structure, and osteoclasts and osteoblasts are identified by their distinctive morphology. […]

[3] = tested on: TMC-23 mouse clonal chondrogenic cell line; assay: Chondrogenic activity: alkaline phosphatase (ALP) activity in TMC-23 cells; type: cell-based; conditions: day 2, 10^−9 M, compared to vehicle control
Procedure: Briefly, a mouse clonal chondrogenic cell line, TMC-23, was isolated and cloned from costal cartilage of transgenic mice containing the BMP-2 gene control region driving SV-40 large T-antigen, generated as described in Ghosh-Choudhury et al Endocrinology 137:331-39, 1996.
For measurement of alkaline phosphatase (ALP) activity, the technique of LF Bonewald et al. J Biol Chem (1992) 267:8943-49, was employed. Briefly, TMC-23 cells were plated in 96 well microtiter plates in DMEM containing 10% FCS at 4×10^3 cells/well. Two days after plating, the cells were confluent and the medium was replaced with fresh medium containing 10% FCS and different concentrations of compounds or recombinant BMP-2. After an additional 2 or 5 days incubation, the plates were washed twice with PBS, and then lysing solution (0.05% Triton X-100) was added (100 μl/well). The cells were lysed by three freeze-thaw cycles of −70° C. (30 min), followed by 37° C. (30 min with shaking). […] The spectrophotometric absorbance at 405 nm was compared to that of p-nitrophenol standards to estimate ALP activity in the samples. The protein content of the cell lysates was determined by the Bio-Rad protein assay kit (Bio-Rad, Hercules, Calif.). Specific activity was calculated using these two parameters.

c1ccc(N=NC2=NNc3ccccc3S2)cc1 [Compound 59-0008, 3-phenylazo-1H-4,1,2-benzothiadiazine]
luciferase response at maximal activity [1]: approximately 175 light emission units
increase in width of new calvarial bone [2]: 4 fold
increase of ALP levels [3]: approximately 3 fold
